Molecular target: α4β1 (Homo sapiens, UniProt P05556+P13612)
Assay: α4β1 integrin inhibition, IC50
Format: binding
Conditions: read-out: α4β1 IC50

Sequence of α4β1 (P13612 34-1032): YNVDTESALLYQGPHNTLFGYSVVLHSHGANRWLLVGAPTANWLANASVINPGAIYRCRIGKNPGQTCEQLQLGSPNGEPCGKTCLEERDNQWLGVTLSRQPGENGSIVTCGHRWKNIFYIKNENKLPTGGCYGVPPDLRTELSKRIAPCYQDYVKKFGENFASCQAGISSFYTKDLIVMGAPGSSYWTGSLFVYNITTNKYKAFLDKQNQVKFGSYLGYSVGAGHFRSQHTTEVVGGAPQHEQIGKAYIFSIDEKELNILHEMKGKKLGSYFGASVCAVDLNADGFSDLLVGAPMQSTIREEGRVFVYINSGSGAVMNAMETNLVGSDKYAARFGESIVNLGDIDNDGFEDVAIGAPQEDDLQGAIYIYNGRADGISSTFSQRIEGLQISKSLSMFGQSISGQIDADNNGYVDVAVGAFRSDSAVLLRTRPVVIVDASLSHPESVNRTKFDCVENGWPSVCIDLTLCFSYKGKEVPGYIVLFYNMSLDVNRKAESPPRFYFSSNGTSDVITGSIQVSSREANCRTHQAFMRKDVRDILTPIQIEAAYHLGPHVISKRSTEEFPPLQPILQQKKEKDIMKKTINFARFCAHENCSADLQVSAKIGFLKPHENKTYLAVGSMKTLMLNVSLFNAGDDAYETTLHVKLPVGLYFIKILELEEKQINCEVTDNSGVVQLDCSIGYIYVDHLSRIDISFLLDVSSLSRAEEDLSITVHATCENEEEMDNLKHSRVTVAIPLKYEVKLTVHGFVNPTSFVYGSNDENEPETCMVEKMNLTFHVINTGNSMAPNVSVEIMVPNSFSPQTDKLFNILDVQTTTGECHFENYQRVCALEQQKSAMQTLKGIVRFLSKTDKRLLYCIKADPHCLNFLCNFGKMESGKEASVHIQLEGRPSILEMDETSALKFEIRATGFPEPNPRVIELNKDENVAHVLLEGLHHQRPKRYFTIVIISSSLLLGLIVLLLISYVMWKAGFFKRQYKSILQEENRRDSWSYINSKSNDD
Sequence of α4β1 (P05556 21-798): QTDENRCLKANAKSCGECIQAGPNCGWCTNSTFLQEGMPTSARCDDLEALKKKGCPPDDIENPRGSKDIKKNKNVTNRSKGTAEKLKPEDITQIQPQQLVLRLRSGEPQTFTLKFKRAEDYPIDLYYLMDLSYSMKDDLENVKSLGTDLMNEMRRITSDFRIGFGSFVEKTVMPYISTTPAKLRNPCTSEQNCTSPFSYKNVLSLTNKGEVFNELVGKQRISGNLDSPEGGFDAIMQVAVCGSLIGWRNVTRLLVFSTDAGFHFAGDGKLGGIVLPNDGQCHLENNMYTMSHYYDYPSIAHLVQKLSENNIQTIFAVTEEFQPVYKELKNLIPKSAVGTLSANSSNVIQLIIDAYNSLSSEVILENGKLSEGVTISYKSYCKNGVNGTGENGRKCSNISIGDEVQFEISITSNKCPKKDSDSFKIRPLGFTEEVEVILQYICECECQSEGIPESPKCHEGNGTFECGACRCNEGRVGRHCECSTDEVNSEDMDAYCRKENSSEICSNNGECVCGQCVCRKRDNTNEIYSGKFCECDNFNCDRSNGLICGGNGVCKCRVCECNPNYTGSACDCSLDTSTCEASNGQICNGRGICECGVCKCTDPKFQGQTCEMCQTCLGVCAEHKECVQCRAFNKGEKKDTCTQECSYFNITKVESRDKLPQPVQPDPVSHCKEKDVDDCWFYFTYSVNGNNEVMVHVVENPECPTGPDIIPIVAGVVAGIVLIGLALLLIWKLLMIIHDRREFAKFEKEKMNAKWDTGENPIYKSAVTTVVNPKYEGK

Row | SMILES | IC50 [nM]
1 | Cc1cn(C)c(=O)c(NC(=O)N[C@@H](CC(=O)O)c2cccc(-c3c(F)cccc3F)c2)c1O [1-464, sodium (S)-3-(2′,6′-difluorobiphenyl-3-yl)-3-(3-(1,5-dimethyl-4-oxido-2-oxo-1,2-di hydropyridin-3-yl)ureido)propanoate] | < 20
2 | Cc1cn(C)c(=O)c(NC(=O)N[C@@H](CC(=O)O)c2cccc(-c3cccc(F)c3)c2)c1O [1-465, sodium (S)-3-(3-(1,5-dimethyl-4-oxido-2-oxo-1,2-dihydropyridin-3-yl)ureido)-3-(3′-fluorobiphenyl-3-yl)propanoate] | < 20
3 | Cc1cn(C)c(=O)c(NC(=O)N[C@@H](CC(=O)O)c2cccc(-c3ccc(F)cc3)c2)c1O [1-466, sodium (S)-3-(3-(1,5-dimethyl-4-oxido-2-oxo-1,2-dihydropyridin-3-yl)ureido)-3-(4′-fluorobiphenyl-3-yl)propanoate] | < 20
4 | Cc1cn(C)c(=O)c(NC(=O)N[C@@H](CC(=O)O)c2cccc(-c3ccccc3OC(F)(F)F)c2)c1O [1-467, sodium (S)-3-(3-(1,5-dimethyl-4-oxido-2-oxo-1,2-dihydropyridin-3-yl)ureido)-3-(2′-(trifluoromethoxy)biphenyl-3-yl)propanoate] | < 200
5 | COc1ccc(-c2cccc([C@H](CC(=O)O)NC(=O)Nc3c(O)c(C)cn(C)c3=O)c2)c(OC)c1 [1-468, sodium (S)-3-(2′,4′-dimethoxybiphenyl-3-yl)-3-(3-(1,5-dimethyl-4-oxido-2-oxo-1,2-dihydropyridin-3-yl)ureido)propanoate] | < 200
6 | COc1ccc(-c2cccc([C@H](CC(=O)O)NC(=O)Nc3c(O)c(C)cn(C)c3=O)c2)cc1OC [1-469, sodium (S)-3-(3′,4′-dimethoxybiphenyl-3-yl)-3-(3-(1,5-dimethyl-4-oxido-2-oxo-1,2-dihydropyridin-3-yl)ureido)propanoate] | < 20
7 | Cc1cn(C)c(=O)c(NC(=O)NC(CC(=O)O)c2cccc(-c3ccc(Cl)cc3)c2)c1O (stereo not drawn) [1-471, sodium 3-(4′-chlorobiphenyl-3-yl)-3-(3-(1,5-dimethyl-4-oxido-2-oxo-1,2-dihydropyridin-3-yl)ureido)propanoate] | < 200
8 | Cc1cn(C)c(=O)c(NC(=O)NC(CC(=O)O)c2cccc(-c3cccc(Cl)c3)c2)c1O (stereo not drawn) [1-472, sodium 3-(3′-chlorobiphenyl-3-yl)-3-(3-(1,5-dimethyl-4-oxido-2-oxo-1,2-dihydropyridin-3-yl)ureido)propanoate] | < 200
9 | Cc1cn(C)c(=O)c(NC(=O)NC(CC(=O)O)c2cccc(-c3ccccc3Cl)c2)c1O (stereo not drawn) [1-473, sodium 3-(2′-chlorobiphenyl-3-yl)-3-(3-(1,5-dimethyl-4-oxido-2-oxo-1,2-dihydropyridin-3-yl)ureido)propanoate] | < 20
10 | Cc1cn(C)c(=O)c(NC(=O)N[C@@H](CC(=O)O)c2cccc(-c3ccccc3C(F)(F)F)c2)c1O [1-474, sodium (S)-3-(3-(1,5-dimethyl-4-oxido-2-oxo-1,2-dihydropyridin-3-yl)ureido)-3-(2′-(trifluoromethyl)biphenyl-3-yl)propanoate] | < 200
11 | COc1cc([C@H](CC(=O)O)NC(=O)Nc2c(O)c(C)cn(C)c2=O)cc(-c2ccccc2)c1OC [1-475, sodium (S)-3-(5,6-dimethoxybiphenyl-3-yl)-3-(3-(1,5-dimethyl-4-oxido-2-oxo-1,2-dihydropyridin-3-yl)ureido)propanoate] | < 200
12 | COc1ccc(-c2cccc([C@H](CC(=O)O)NC(=O)Nc3c(O)c(C)cn(C)c3=O)c2)cn1 [1-476, sodium (S)-3-(3-(1,5-dimethyl-4-oxido-2-oxo-1,2-dihydropyridin-3-yl)ureido)-3-(3-(6-methoxypyridin-3-yl)phenyl)propanoate] | < 20
13 | COc1ccc(OC)c(-c2cccc([C@H](CC(=O)O)NC(=O)Nc3c(O)c(C)cn(C)c3=O)c2)c1 [1-477, sodium (S)-3-(2′,5′-dimethoxybiphenyl-3-yl)-3-(3-(1,5-dimethyl-4-oxido-2-oxo-1,2-dihydropyridin-3-yl)ureido)propanoate] | < 200

Further lines, results first:

Row | IC50 [nM] | SMILES
14 | < 200 | Cc1cn(C)c(=O)c(NC(=O)NC(CC(=O)O)c2cccc(-c3cncnc3)c2)c1O (stereo not drawn) [1-478, sodium 3-(3-(1,5-dimethyl-4-oxido-2-oxo-1,2-dihydropyridin-3-yl)ureido)-3-(3-(pyrimidin-5-yl)phenyl)propanoate]
15 | < 200 | COc1cccc(OC)c1-c1cccc([C@H](CC(=O)O)NC(=O)Nc2c(O)c(C)cn(C)c2=O)c1 [1-479, sodium (S)-3-(2′,6′-dimethoxybiphenyl-3-yl)-3-(3-(1,5-dimethyl-4-oxido-2-oxo-1,2-dihydropyridin-3-yl)ureido)propanoate]
16 | < 200 | CCn1cc(C)c(O)c(NC(=O)NC(CC(=O)O)c2cccc(-c3ccc(Cl)c(Cl)c3)c2)c1=O (stereo not drawn) [1-480, sodium 3-(3′,4′-dichlorobiphenyl-3-yl)-3-(3-(1-ethyl-5-methyl-4-oxido-2-oxo-1,2-dihydropyridin-3-yl)ureido)propanoate]
17 | < 200 | Cc1cn(C)c(=O)c(NC(=O)NC(CC(=O)O)c2cccc(-c3ccc(Cl)c(Cl)c3)c2)c1O (stereo not drawn) [1-481, sodium 3-(3′,4′-dichlorobiphenyl-3-yl)-3-(3-(1,5-dimethyl-4-oxido-2-oxo-1,2-dihydropyridin-3-yl)ureido)propanoate]
18 | < 200 | Cc1cn(C)c(=O)c(NC(=O)N[C@@H](CC(=O)O)c2ccc(-c3ccccc3)o2)c1O [1-482, sodium (S)-3-(3-(1,5-dimethyl-4-oxido-2-oxo-1,2-dihydropyridin-3-yl)ureido)-3-(5-phenylfuran-2-yl)propanoate]
19 | < 20 | Cc1cn(C)c(=O)c(NC(=O)N[C@@H](CC(=O)O)c2cccc(-n3c(C)ccc3C)c2)c1O [1-483, sodium (S)-3-(3-(2,5-dimethyl-1H-pyrrol-1-yl)phenyl)-3-(3-(1,5-dimethyl-4-oxido-2-oxo-1,2-dihydropyridin-3-yl)ureido)propanoate]
20 | < 200 | Cc1cn(C)c(=O)c(NC(=O)NC(CC(=O)O)c2cccc(-c3ccc(F)c(Cl)c3)c2)c1O (stereo not drawn) [1-484, sodium 3-(3′-chloro-4′-fluorobiphenyl-3-yl)-3-(3-(1,5-dimethyl-4-oxido-2-oxo-1,2-dihydropyridin-3-yl)ureido)propanoate]
21 | < 200 | Cc1cn(C)c(=O)c(NC(=O)NC(CC(=O)O)c2cccc(-c3cccc(Cl)c3Cl)c2)c1O (stereo not drawn) [1-485, sodium 3-(2′,3′-dichlorobiphenyl-3-yl)-3-(3-(1,5-dimethyl-4-oxido-2-oxo-1,2-dihydropyridin-3-yl)ureido)propanoate]
22 | < 200 | Cc1cn(C)c(=O)c(NC(=O)NC(CC(=O)O)c2cccc(-c3cc(Cl)cc(Cl)c3)c2)c1O (stereo not drawn) [1-486, sodium 3-(3′,5′-dichlorobiphenyl-3-yl)-3-(3-(1,5-dimethyl-4-oxido-2-oxo-1,2-dihydropyridin-3-yl)ureido)propanoate]
23 | < 200 | COc1cccc(-c2cccc([C@H](CC(=O)O)NC(=O)Nc3c(O)c(C)cn(C)c3=O)c2)c1C [1-489, sodium (S)-3-(3-(1,5-dimethyl-4-oxido-2-oxo-1,2-dihydropyridin-3-yl)ureido)-3-(3′-methoxy-2′-methylbiphenyl-3-yl)propanoate]
24 | < 200 | COc1ccc(C)c(-c2cccc([C@H](CC(=O)O)NC(=O)Nc3c(O)c(C)cn(C)c3=O)c2)c1 [1-490, sodium (S)-3-(3-(1,5-dimethyl-4-oxido-2-oxo-1,2-dihydropyridin-3-yl)ureido)-3-(5′-methoxy-2′-methylbiphenyl-3-yl)propanoate]
25 | < 200 | Cc1cn(C)c(=O)c(NC(=O)NC(CC(=O)O)c2ccc(OCC(F)(F)F)c(-c3ccccc3)c2)c1O (stereo not drawn) [1-491, sodium 3-(3-(1,5-dimethyl-4-oxido-2-oxo-1,2-dihydropyridin-3-yl)ureido)-3-(6-(2,2,2-trifluoroethoxy)biphenyl-3-yl)propanoate]
26 | < 20 | CCc1ccccc1-c1cccc([C@H](CC(=O)O)NC(=O)Nc2c(O)c(C)cn(C)c2=O)c1 [1-492, sodium (S)-3-(3-(1,5-dimethyl-4-oxido-2-oxo-1,2-dihydropyridin-3-yl)ureido)-3-(2′-ethylbiphenyl-3-yl)propanoate]
27 | < 200 | Cc1cn(C)c(=O)c(NC(=O)N[C@@H](CC(=O)O)c2cc(-c3ccccc3)ccc2F)c1O [1-493, sodium (S)-3-(3-(1,5-dimethyl-4-oxido-2-oxo-1,2-dihydropyridin-3-yl)ureido)-3-(4-fluorobiphenyl-3-yl)propanoate]
28 | < 20 | O=C(O)C[C@H](NC(=O)Nc1c(O)cc[nH]c1=O)c1cccc(-c2ccc(F)cc2F)c1 [1-494, sodium (S)-3-(2′,4′-difluorobiphenyl-3-yl)-3-(3-(4-oxido-2-oxo-1,2-dihydropyridin-3-yl)ureido)propanoate]
29 | < 200 | Cc1ccc(-c2cccc([C@H](CC(=O)O)NC(=O)Nc3c(O)c(C)cn(C)c3=O)c2)cc1C [1-495, sodium (S)-3-(3-(1,5-dimethyl-4-oxido-2-oxo-1,2-dihydropyridin-3-yl)ureido)-3-(3′,4′-dimethylbiphenyl-3-yl)propanoate]
30 | < 200 | Cc1cn(C)c(=O)c(NC(=O)N[C@@H](CC(=O)O)c2cccc(-c3cccc(F)c3F)c2)c1O [1-496, sodium (S)-3-(2′,3′-difluorobiphenyl-3-yl)-3-(3-(1,5-dimethyl-4-oxido-2-oxo-1,2-dihydropyridin-3-yl)ureido)propanoate]
31 | < 200 | Cc1cc(-c2cccc([C@H](CC(=O)O)NC(=O)Nc3c(O)c(C)cn(C)c3=O)c2)ccc1F [1-497, sodium (S)-3-(3-(1,5-dimethyl-4-oxido-2-oxo-1,2-dihydropyridin-3-yl)ureido)-3-(4′-fluoro-3′-methylbiphenyl-3-yl)propanoate]
32 | > 200 | Cc1cn(C)c(=O)c(NC(=O)N[C@@H](CC(=O)O)c2cccn2-c2ccccc2)c1O [1-498, sodium (S)-3-(3-(1,5-dimethyl-4-oxido-2-oxo-1,2-dihydropyridin-3-yl)ureido)-3-(1-phenyl-1H-pyrrol-2-yl)propanoate]
33 | < 20 | Cc1cn(C)c(=O)c(NC(=O)N[C@@H](CC(=O)O)c2cccc(-c3cccc(Cl)c3)c2)c1O [1-499, sodium (S)-3-(3′-chlorobiphenyl-3-yl)-3-(3-(1,5-dimethyl-4-oxido-2-oxo-1,2-dihydropyridin-3-yl)ureido)propanoate]

Reference: patent US10875875B2, “Propionic acid derivatives and methods of use thereof” (Aviara Pharmaceuticals, Inc., priority 2017, dated 2020)
